# Laboratory results published in BindingDB's records for doi:10.1021/ml5002757 (Therachem Research Medilab (India), 2014).
# Biological target: Free fatty acid receptor 1 (Homo sapiens, UniProt O14842)
# Assay: Modulation activity at human GPR40 expressed in HEK293 cells by IP-1 detection based HTRF assay
# Free fatty acid receptor 1, sequence (O14842 whole entry): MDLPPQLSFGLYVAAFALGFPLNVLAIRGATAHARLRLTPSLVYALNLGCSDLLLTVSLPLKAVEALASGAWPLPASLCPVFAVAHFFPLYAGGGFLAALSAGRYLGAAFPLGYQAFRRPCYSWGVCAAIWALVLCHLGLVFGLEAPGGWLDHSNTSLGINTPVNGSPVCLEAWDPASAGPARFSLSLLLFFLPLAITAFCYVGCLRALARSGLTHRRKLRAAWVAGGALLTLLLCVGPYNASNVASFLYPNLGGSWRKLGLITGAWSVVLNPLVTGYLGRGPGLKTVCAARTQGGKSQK
smiles,measurement,value
Cc1ccccc1Oc1ccc(N2N=C(C#N)CC2CC(=O)O)cc1 (stereo unspecified),EC50,560 nM
